Test results published in ChEMBL document CHEMBL3632464, “The quorum-sensing inhibiting effects of stilbenoids and their potential structure-activity relationship” (2015).
Converted amounts (≈) assume the structure as drawn. The source made the active and inactive calls. The calls are words filed in the database; no cut-off is given here.

Assays:
[1] = system: Pseudomonas aeruginosa PAO1; assay: Inhibition of Quorum sensing system in Pseudomonas aeruginosa PAO1 assessed as inhibition of swarming motility at 100 uM after 16 hrs
[2] = system: Chromobacterium violaceum; assay: Antibacterial activity in Chromobacterium violaceum CV026 at >50 ug/well by agar-well diffusion method; type: functional, organism-based
Pseudomonas aeruginosa [3] = assay: Antibacterial activity in Pseudomonas aeruginosa PAO1 for 16 hrs; type: functional; settings: PAO1, 16 h
[4] = system: Pseudomonas aeruginosa PAO1; assay: Inhibition of Quorum sensing system in Pseudomonas aeruginosa PAO1 assessed as inhibition of pyocyanin production at sub-MIC concentration after 16 to 18 hrs by spectrophotometric assay
Pseudomonas aeruginosa [5] = assay: Decrease in lasR gene expression in Pseudomonas aeruginosa PAO1 at 400 uM by RT-PCR analysis; type: functional, organism-based
[6] = system: Chromobacterium violaceum; assay: Inhibition of Quorum sensing system in Chromobacterium violaceum CV026 assessed as inhibition of violacein synthesis at 25 to 150 uM after 18 hrs by spectrophotometric assay
Pseudomonas aeruginosa [7] = assay: Decrease in rhIR gene expression in Pseudomonas aeruginosa PAO1 at 400 uM by RT-PCR analysis; type: functional, organism-based
Pseudomonas aeruginosa [8] = assay: Decrease in rhII gene expression in Pseudomonas aeruginosa PAO1 at 400 uM by RT-PCR analysis; type: functional, organism-based
[9] = system: Chromobacterium violaceum; assay: Antibacterial activity in Chromobacterium violaceum CV026 for 16 hrs; type: functional; settings: CV026, 16 h
[10] = system: Pseudomonas aeruginosa PAO1; assay: Inhibition of Quorum sensing system in Pseudomonas aeruginosa PAO1 assessed as inhibition of pyocyanin production at 400 uM after 16 to 18 hrs by spectrophotometric assay
[11] = system: Chromobacterium violaceum; assay: Inhibition of Quorum sensing system in Chromobacterium violaceum CV026 assessed as inhibition of violacein synthesis at >100 uM after 18 hrs by spectrophotometric assay
Pseudomonas aeruginosa [12] = assay: Decrease in lasI gene expression in Pseudomonas aeruginosa PAO1 at 400 uM by RT-PCR analysis relative to control; type: functional
[13] = system: Chromobacterium violaceum; assay: Inhibition of Quorum sensing system in Chromobacterium violaceum CV026 at 1 to 4 mg/ml after 24 hrs by agar-well diffusion method
[14] = system: Chromobacterium violaceum; assay: Inhibition of Quorum sensing system in Chromobacterium violaceum assessed as inhibition of violacein synthesis; settings: concentration not given here
Pseudomonas aeruginosa [15] = assay: Antibacterial activity in Pseudomonas aeruginosa PAO1 at 400 uM measured every 2 hrs for 24 hrs by microplate reader analysis; type: functional, organism-based
[16] = system: Chromobacterium violaceum; assay: Antibacterial activity in Chromobacterium violaceum CV026 at 0.6 mg/ml by agar-well diffusion method; type: functional, organism-based
[17] = system: Chromobacterium violaceum; assay: Inhibition of Quorum sensing system in Chromobacterium violaceum CV026 assessed as inhibition of violacein synthesis at 125 uM after 18 hrs by spectrophotometric assay
[18] = system: Chromobacterium violaceum; assay: Inhibition of Quorum sensing system in Chromobacterium violaceum CV026 assessed as inhibition of violacein synthesis at 150 uM after 18 hrs by spectrophotometric assay
[19] = system: Chromobacterium violaceum; assay: Inhibition of Quorum sensing system in Chromobacterium violaceum CV026 assessed as violacein synthesis at 25 and 50 uM after 18 hrs by spectrophotometric assay
[20] = system: Chromobacterium violaceum; assay: Antibacterial activity in Chromobacterium violaceum CV026 at 100 ug/well by agar-well diffusion method; type: functional, organism-based
[21] = system: Chromobacterium violaceum; assay: Inhibition of Quorum sensing system in Chromobacterium violaceum CV026 assessed as inhibition of violacein synthesis at 75 uM after 18 hrs by spectrophotometric assay
[22] = system: Chromobacterium violaceum; assay: Inhibition of Quorum sensing system in Chromobacterium violaceum CV026 after 24 hrs by agar-well diffusion method

For Oc1ccc(/C=C/c2cc(O)cc(O)c2)cc1 [RESVERATROL], the inhibition [1] was “Active”, the Activity [2] was “Active” and the MIC (Pseudomonas aeruginosa [3]) was over 1000 µg/mL. For the same compound, the inhibition [4] was “Active”, the inhibition (Pseudomonas aeruginosa [5]) was “Active” and the inhibition [6] was “Active”. The inhibition (Pseudomonas aeruginosa [7]) was “Active”, the inhibition (Pseudomonas aeruginosa [8]) was “Active” and the MIC [9] was 150 µg/mL (≈ 657 µM). For the same compound, the inhibition [10] was 59.3%, the inhibition [11] was over 80% and the “fold change (FC)” value (Pseudomonas aeruginosa [12]) was 2. The inhibition [13] was “Active”, the inhibition [14] was 70% and the Activity (Pseudomonas aeruginosa [15]) was “inactive”.
In the case of GENTAMICIN, the Activity [16] is reported as “Active”.
With Oc1cc(O)cc(/C=C/c2ccc(O)c(O)c2)c1 [PICEATANNOL] the inhibition [1] was “Active”, the inhibition [17] was 46% and the inhibition [18] was 73%. For the same compound, the MIC (Pseudomonas aeruginosa [3]) was over 1000 µg/mL, the inhibition [19] was “inactive” and the inhibition [4] was “Active”. For the same compound, the inhibition (Pseudomonas aeruginosa [5]) was “Active”, the inhibition (Pseudomonas aeruginosa [7]) was “Active” and the Activity [20] was “Active”. For the same compound, the inhibition (Pseudomonas aeruginosa [8]) was “Active”, the MIC [9] was 250 µg/mL (≈ 1020 µM) and the inhibition [21] was “Active”. For the same compound, the inhibition [10] was 37.1%, the “fold change (FC)” value (Pseudomonas aeruginosa [12]) was 5 and the inhibition [13] was “Active”. The Activity (Pseudomonas aeruginosa [15]) was “inactive”.
COc1ccc(CCc2cc(OC)c(OC)c(OC)c2)cc1O was tested, and the inhibition [22] was “inactive”.
In the case of Oc1cc(O)cc(/C=C/c2ccc(O)cc2O)c1 [OXYRESVERATROL], the inhibition [1] is reported as “Active”, the inhibition [18] is reported as 86% and the MIC (Pseudomonas aeruginosa [3]) is reported as over 1000 µg/mL. The inhibition [4] was “Active”, the inhibition (Pseudomonas aeruginosa [5]) was “Active” and the inhibition [6] was “Active”. For the same compound, the inhibition (Pseudomonas aeruginosa [7]) was “Active”, the inhibition (Pseudomonas aeruginosa [8]) was “Active” and the MIC [9] was 250 µg/mL (≈ 1020 µM). The inhibition [10] was 50.2%, the “fold change (FC)” value (Pseudomonas aeruginosa [12]) was 3 and the inhibition [13] was “Active”. For the same compound, the Activity (Pseudomonas aeruginosa [15]) was “inactive”.
COc1ccc(CCc2cc(OC)c(OC)c(OC)c2)cc1OC was tested, and the inhibition [22] was “inactive”.
For COc1cc(/C=C/c2ccc(O)cc2)cc(OC)c1, the inhibition [22] was “inactive”.
COc1c(O)cc2ccc3c(OC)c(O)ccc3c2c1OC was tested, and the inhibition [22] was “inactive”.
For COc1ccc(CCc2cc(O)cc(O)c2)cc1OC, the inhibition [22] was “inactive”.
COc1ccc(CCc2cc(OC)c(O)c(OC)c2)cc1O was tested, and the inhibition [22] was “inactive”.
With COc1cc2ccc3c(OC)c(O)ccc3c2c(OC)c1OC the inhibition [22] was “inactive”.
